According to US7754202B1, “Methods of controlling cell differentiation and growth using a fusion protein and a drug” (Stanford University, priority 1998, dated 2010):

Experiments:
[1] = system: Ba/F3 cell lines expressing gp130 signaling domain fused to FKBP12 domains; assay: Proliferation of Ba/F3 cell lines expressing gp130-FKBP12 fusion proteins; format: cell-based
Description: Expression cassettes encoding fusion proteins containing the signaling domains of the gp130 fused to one, two or three copies of the FKBP12 domain were used to generate stably transfected Ba/F3 cell lines. The complexes that can be assembled in response to FK1012 differ for the various fusion proteins. In the presence of FK1012, fusion proteins containing a single FKBP domain are limited to simple dimerization, whereas proteins containing two or more FKBP domains can form both dimers and oligomers.
In one illustrative experiment, an MSCV-based expression vector was constructed that contained two FKBP12 domains.

[2] = Solubility in aqueous culture medium; format: physicochemical; conditions: aqueous buffer, serial dilution in culture medium, read-out: highest concentration ensuring complete solubility in the (aqueous) medium
Description: Working concentrations of AP1510 can be obtained by adding compound directly from ethanol stocks, or by diluting serially in culture medium just before use. In the latter case it is recommended that the highest concentration not exceed 5 uM, to ensure complete solubility in the (aqueous) medium. In either case, the final concentration of ethanol in the medium added to mammalian cells should be kept below 0.5% (a 200-fold dilution of a 100% ethanol solution) to prevent detrimental effects of the solvent on the cells.

cells = assay: Immunosuppressive activity or other toxicity to cells; format: cell-based; conditions: in experiments to date
[3] = system: CD34+ cells from human cord blood transduced with dimerizer-responsive c-mpl signaling domain; assay: Amplification and erythroid differentiation of MFM-transduced human cord blood CD34+ cells; format: cell-based
Description: CD34+ cells were selected from human cord blood and transduced with a PG13-packaged, MSCV-based retrovirus vector encoding a dimerizer-responsive version of the c-mpl signaling domain (MFM, as described in Example 7, see FIG. 4). […] This finding was reproducible, occurring in each of four separate experiments.

transduced marrow cells = assay: Reversibility of FK1012-dependent cell proliferation after 28 days of culture; format: cell-based, murine
Description: For the experiments whose results are shown in Table 3, after 28 days of culture in FK1012 (100 nM), transduced marrow cells were washed extensively and cultured in suspension in the presence (+) or absence (−) of FK1012. The numbers in Table 3 indicate the number of cells per well×10^−5.

[4] = system: murine bone marrow cells transduced with MSCVF1mpl; assay: Suspension culture of MSCVF1mpl-transduced bone marrow cells (cell numbers, cell types); format: cell-based
Description: FIG. 2: FK1012 stimulates expansion of genetically modified bone marrow cells. Following retroviral transduction, marrow cells were cultured in IMDM containing 10% FCS, 50 U/ml penicillin, […] streptomycin either in the presence or absence of FK1012 (100 nM) or flt-3 ligand (Peprotech-100 ng/ml), in a 37°, 5% CO2, incubator. Cell numbers were determined on the days indicated. Open diamonds: No FK1012, no FL; Closed diamonds: FK1012 alone; Open circles: FL alone; Closed circles: FK1012 plus FL. Note that X axis is on a logarithmic scale.
Forty-eight hours following administration of 150 mg/kg 5-fluorouracil (5-FU), marrow cells were harvested from B6D2F1 mice and cultured for 48 hours in Dulbecco's Modified Eagle's Medium containing 16% fetal calf serum (Intergen), 5% IL3-conditioned medium (Stem Cell Technologies), 100 ng/ml recombinant human IL6 and 50 ng/ml recombinant murine stem cell factor in a 37° C., 5% CO2 incubator. After 48 hours, cells were transferred onto irradiated (1500 cGy) producer cells and cocultivated using the same growth conditions except for the addition of polybrene ([…]). Marrow cells were harvested after 48-hours of cocultivation.
In order to test whether the pharmacological activation of mpl is capable of driving proliferation in genetically modified bone marrow cells, the F1mpl construct was inserted into the retroviral vector MSCV-neoEB (Hawley, et al. Gene Ther. 1:136, 1994). The resulting construct, MSCVF1mpl, was used to generate a stable, high titer, helper virus-free ecotropic producer cell line as described above. Supernatant from the producer cell line was capable of conferring G418 resistance and FK1012 responsiveness in transduced Ba/F3 cell clones (FIG. 1C). Gene transfer into murine bone marrow cells was performed by cocultivation, and transduced marrow cells were tested in suspension culture for the capacity to respond to FK1012. In one set of cultures, FK1012's effects were evaluated in the absence of added growth factors. […] Cell numbers were determined at various time points of culture (FIG. 2). In the absence of drug or added growth factors, all cells died over a period of 7-14 days. […] In contrast, FK1012 dramatically stimulated cell proliferation. The proliferative effect of FK1012 was apparent within 5 days of culture, and has persisted for longer than 49 days without evidence of decline. […] By 42 days of culture FK1012 had induced a greater than 2.5 million-fold expansion in cell numbers.
The types of cells emerging in response to FK1012 differed at varying time points of culture. […] Similar results were obtained in a second experiment.

[5] = system: clonogenic progenitor cells (CFU-C) of MSCVF1mpl-transduced marrow; assay: CFU-C assays during suspension culture, with or without G418; format: cell-based, murine
Description: FIG. 3: CFU-C assays at various time points during suspension culture. Cells were harvested on the days indicated and cultured in semisolid media (Blau, et al. Hum. Gen. Ther. 7:2069, 1996) either in the presence or absence of G418. The concentration of G418, […], was sufficient to prevent the growth of nontransduced cells (data not shown). Dark bars: CFU-C numbers in the absence of G418; Light bars: CFU-C numbers in the presence of G418. (A) No FK1012, no FL; (B) FK1012 alone; (C) FL alone; (D) FK1012 plus FL. Note that FK1012-mediated CFU-C expansion markedly favors the genetically modified cell population.
To determine whether FK1012 is capable of stimulating expansion among clonogenic progenitor cells, progenitors were assayed at various time points of culture as colony forming unit cells (CFU-C). As the MSCVF1mpl vector incorporates a neo gene. (Hawley, et al. Gene Ther. 1:136, 1994), the frequency of genetically modified progenitors is reflected in the frequency of G418 resistant CFU-C. […] By day 28 CFU-C had fallen to undetectable levels (FIG. 3A). In contrast, in the presence of FK1012 an almost 600,000-fold expansion in CFU-C was observed by day 42 (FIG. 3B). […] Of note is that while granulocytes were virtually absent after 42 days in suspension culture in the presence of FK1012 alone, CFU-C progeny derived from these cultures contained large numbers of granulocytes. […]

G418 resistant CFU-C = assay: FK1012-mediated selection of genetically modified CFU-C in a mixed transduced/non-transduced marrow population; format: cell-based, murine; conditions: mixed transduced and non-transduced marrow
Description: In order to determine whether FK1012 is capable of specifically delivering a mitogenic signal to a minor population of genetically modified CFU-C, marrow cells cocultivated with the MSCVF1mpl producer cell line were mixed with marrow cells cocultivated with the parental packaging cell line. The frequency of G418 CFU-C arising from this mixed population of transduced and non-transduced cells was 35%.
The numbers in Table 4 indicate the fraction of G418 resistant CFU-C.

[6] = gp130 chimeric proteins containing a single FKBP12 domain
[7] = gp130 fusion proteins with two or three FKBP12 domains
[8] = FK1012 100 nM, suspension culture

CCC(C)(C)C(=O)C(=O)N1CCCC[C@H]1C(=O)O[C@H](CCc1ccc(OC)c(OC)c1)c1cccc(OCC(=O)NCCNC(=O)COc2cccc([C@@H](CCc3ccc(OC)c(OC)c3)OC(=O)[C@@H]3CCCCN3C(=O)C(=O)C(C)(C)CC)c2)c1 [AP1510]
proliferative response [1, 6]: minimal proliferative response
proliferative response [1, 7]: vigorous proliferative responses
solubility [2]: ≤ 5 µM
immunosuppressive activity or other toxicity to cells (cells): no immunosuppressive activity or other toxicity to cells

CC[C@H](C(=O)N1CCCC[C@H]1C(=O)O[C@H](CCc1ccc(OC)c(OC)c1)c1cccc(OCC(=O)NCCNC(=O)COc2cccc([C@@H](CCc3ccc(OC)c(OC)c3)OC(=O)[C@@H]3CCCCN3C(=O)[C@@H](CC)c3cc(OC)c(OC)c(OC)c3)c2)c1)c1cc(OC)c(OC)c(OC)c1 [AP1903]
cell proliferation ([1]; MSCV construct, gp130 with two modified FKBP12 domains, Ba/F3 cells): vigorous AP1903-dependent cell proliferation
cells expressing glycophorin ([3]; by day 15 of culture): 90%
expansion in total cell numbers ([3]; in the absence of added cytokines): 175-350 fold

FK1012
proliferative response [1, 6]: minimal proliferative response
proliferative response [1, 7]: lesser proliferative responses
in vivo half life (In vivo half life): less than one
number of cells per well (transduced marrow cells; absence (−) of FK1012 after 28 days in FK1012 and washing, day 0): 5 10^5 cells per well
number of cells per well (transduced marrow cells; absence (−) of FK1012 after 28 days in FK1012 and washing, day 7): 0.59 10^5 cells per well
number of cells per well (transduced marrow cells; absence (−) of FK1012 after 28 days in FK1012 and washing, day 14): .09 cells per well×10^−5
reversibility of proliferative effect (transduced marrow cells; cells cultured 28 days in FK1012, then withdrawal or re-addition): withdrawal of FK1012 was followed promptly by cell death
number of cells per well (transduced marrow cells; presence (+) of FK1012, day 0 in culture): 5 10^5 cells per well
number of cells per well (transduced marrow cells; presence (+) of FK1012, day 7 in culture): 36 10^5 cells per well
number of cells per well (transduced marrow cells; presence (+) of FK1012, day 14 in culture): 1283 10^5 cells per well
persistence of proliferative effect without evidence of decline [4, 8]: > 49 days
time until proliferative effect apparent [4, 8]: ≤ 5 days
expansion in cell numbers ([4]; by 42 days of culture, FK1012 100 nM): greater than 2.5 million
types of cells emerging ([4]; first two weeks of culture in FK1012): mature granulocytes and macrophages predominated, while megakaryocytes were rare
types of cells emerging ([4]; later time points of culture in FK1012): megakaryocytes emerged as the dominant phenotypically identifiable cell population
expansion in CFU-C ([5]; by day 42, FK1012 alone): ~600,000 fold
fraction of G418 resistant CFU-C (G418 resistant CFU-C; day 0 in culture): 0.35
fraction of G418 resistant CFU-C (G418 resistant CFU-C; day 7 in culture): 0.96

B1: FL: flt-3 ligand (Peprotech), growth factor used at 100 ng/ml (protein, UniProt P49771 27-235, looked up)
Fms-related tyrosine kinase 3 …: TQDCSFQHSPISSDFAVKIRELSDYLLQDYPVTVASNLQDEELCGGLWRLVLAQRWMERLKTVAGSKMQGLLERVNTEIHFVTKCAFQPPPSCLRFVQTNISRLLQETSEQLVALKPWITRQNFSRCLELQCQPDSSTLPPPWSPRPLEATAPTAPQPPLLLLLLLPVGLLLLAAAWCLHWQRTRRRTPRPGEQVPPVPSPQDLLLVEH
cell survival in suspension culture ([4]; FL alone): all cells died by day 28
expansion in cell numbers ([4]; FL alone (100 ng/ml), between 9 and 12 days of suspension culture): three
expansion in CFU-C ([5]; FL alone, transient, without preference for the transduced population): seven
fraction of G418 resistant CFU-C (G418 resistant CFU-C; day 0 in culture): 0.35
fraction of G418 resistant CFU-C (G418 resistant CFU-C; day 7 in culture): 0.14
